In PubChem BioAssay AID2060602 (Molecular Pharmacology Branch, DTP, NCI, 2025):
pIC50: −log10 of the molar value.

Test system: 648629-189-R-J1-PDC complex spheroids viability
Assay: Anticancer human tumor 648629-189-R-J1-PDC patient-derived bladder carcinoma cell line growth inhibition [CLK]
Conditions: for pIC50: curve of first compound; for viability, T/C: stronger effect = lower value
From the text: A high-throughput screen of multi-cell type tumor spheroids was designed to identify active combinations of […] and targeted small molecules. Complex spheroids include a stromal component modeled by human endothelial cells (HUVEC) and fibroblasts modeled by human mesenchymal stem cells (MSCs). The concentration ranges selected for each drug and investigational agent were based upon clinically achievable concentrations if the clinical Cmax of the agent was known.
Compounds. The drugs and investigational agents: cirtuvivint (SM08502; NSC835563), CC-671 (NSC850746), vemurafenib (NSC761431), tapotoclax (NSC804041), sotorasib (NSC818433), adagrasib (NSC831453), MRTX-1133 (NSC836407), BAY2416964 (NSC825713), copanlisib (NSC816437), inavolisib (NSC800729), abemaciclib (NSC768073), osimertinib (NSC779217), entinostat (NSC756642), eltanexor (KPT-8602, NSC794443), venetoclax (NSC766270), ceralasertib (NSC777638), bortezomib (NSC756655), olaparib (NSC753686), talazoparib (NSC767125), alisertib (NSC759677), peposertib (NSC802822), gemcitabine (NSC613327), 5-fluorouracil (NSC19893), SN-38 (NSC673596), oxaliplatin (NSC266046), paclitaxel (NSC125973), and doxorubicin (NSC123127), were obtained from the National Cancer Institute (NCI) Developmental Therapeutics Program Chemical Repository. The FDA-approved anticancer drug set is available from the Developmental Therapeutics Program at https://dtp.cancer.gov/organization/dscb/obtaining/available plates.htm. […] The stock solutions were prepared in dimethyl sulfoxide (DMSO, Sigma-Aldrich, St. Louis, MO, cat. D2650), except for the platinum complexes which were prepared in saline (Quality Biological, Gaithersburg, MD, cat. 114-055-101), at 800-fold the tested concentration and stored at -70 degrees C prior to their use. All drugs and investigational agents were tested over a range starting from a high concentration at or near the clinical Cmax and decreasing in half-log increments. If the clinical Cmax for an agent had not been determined, the highest concentration tested was 10 microM.
Cell Culture. All cells were maintained in an incubator at 37 degrees C and 5% CO2 with 95% humidity. The PDC lines were cultured according to standard operating procedures established by the NCI PDMR. Briefly, all PDCs were thawed and cultured in Matrigel-coated flasks prepared with a working solution of 1X Ham's F-12 nutrient mix, without supplementation (Invitrogen, Waltham, MA, cat. 11765054), 100 U/mL penicillin-streptomycin (Invitrogen, cat. 15140122), and 2.5% Matrigel (Corning Inc., Corning, NY, cat. 354248) for the first three passages. The 947758-054-R-J2-PDC line was cultured in 6B/Colon 1A media, which includes advanced DMEM/F-12 (Thermo Fisher Scientific, cat. 12634028), 10 mM HEPES (Thermo Fisher Scientific, cat. 15630080), 1X GlutaMAX supplement (Thermo Fisher Scientific, cat. 35050061), 0.1 mg/mL primocin (InvivoGen, cat. ant-pm-2), 10% defined fetal bovine serum, heat inactivated (HyClone Laboratories Inc., cat. SH30070.03HI), 1.25 mM N-Acetyl-L-cysteine (Sigma-Aldrich, cat. A9165), 10 mM nicotinamide (Sigma-Aldrich, cat. N0636), 1X B-27 supplement (Thermo Fisher Scientific, cat. 17504044), 1X N-2 supplement (Thermo Fisher Scientific, cat. 17502048), and 10 microM Y-27632 dihydrochloride (Tocris Bioscience, cat. 1254). The 876862-298-R-J1-PDC was cultured in 6E media, which includes all 6B/Colon 1A media components plus 50% L-WRN conditioned media (ATCC, cat. CRL-3276), 50 ng/mL recombinant human EGF recombinant protein (hEGF; Thermo Fisher Scientific, cat. PHG0311), 10 ng/mL recombinant human fibroblast growth factor 10 (hGFG-10; PeproTech, cat. 100-26), 1 ng/mL recombinant human fibroblast growth factor 2 (hFGF-2; PeproTech, cat. 100-18B), and 1 µM prostaglandin E2 (PGE2; Tocris, cat. 2296). The 227483-062-R1-J1-PDC line was cultured in Panc media, containing all 6E components except hFGF-2, with the addition of 500 nM SB-431542 (Selleckchem, cat. S1067) and 10 nM gastrin (Tocris, cat. 3006). […]

[1] = second compound 0.0316 µM, first compound 0.0316 µM
[2] = second compound 0.0316 µM, first compound 0.1 µM
[3] = second compound 0.0316 µM, first compound 0.316 µM
[4] = second compound 0.0316 µM, first compound 1 µM
[5] = second compound 0.1 µM, first compound 0.0316 µM
[6] = second compound 0.1 µM, first compound 0.1 µM
[7] = second compound 0.1 µM, first compound 0.316 µM
[8] = second compound 0.1 µM, first compound 1 µM
[9] = second compound 0.316 µM, first compound 0.0316 µM
[10] = second compound 0.316 µM, first compound 0.1 µM
[11] = second compound 0.316 µM, first compound 0.316 µM
[12] = second compound 0.316 µM, first compound 1 µM
[13] = second compound 1 µM, first compound 0.0316 µM
[14] = second compound 1 µM, first compound 0.1 µM
[15] = second compound 1 µM, first compound 0.316 µM
[16] = second compound 1 µM, first compound 1 µM
[17] = second compound 3.16 µM, first compound 0.0316 µM
[18] = second compound 3.16 µM, first compound 0.1 µM
[19] = second compound 3.16 µM, first compound 0.316 µM
[20] = second compound 3.16 µM, first compound 1 µM
[21] = second compound 10 µM, first compound 0.0316 µM
[22] = second compound 10 µM, first compound 0.1 µM
[23] = second compound 10 µM, first compound 0.316 µM
[24] = second compound 10 µM, first compound 1 µM
[25] = second compound 0.0316 µM, first compound 0.00316 µM
[26] = second compound 0.0316 µM, first compound 0.01 µM
[27] = second compound 0.1 µM, first compound 0.00316 µM
[28] = second compound 0.1 µM, first compound 0.01 µM
[29] = second compound 0.316 µM, first compound 0.00316 µM
[30] = second compound 0.316 µM, first compound 0.01 µM
[31] = second compound 1 µM, first compound 0.00316 µM
[32] = second compound 1 µM, first compound 0.01 µM
[33] = second compound 3.16 µM, first compound 0.00316 µM
[34] = second compound 3.16 µM, first compound 0.01 µM
[35] = second compound 10 µM, first compound 0.00316 µM
[36] = second compound 10 µM, first compound 0.01 µM
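For viability, T/C in this document: drug exposure lasted seven days before viability readout; 100% = DMSO vehicle control wells.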

SMILES: CC(Nc1ccc2c(c1)OCCn1cc(N3C(=O)OCC3C(F)F)nc1-2)C(N)=O (stereo unspecified) + CN1CCN(c2cc(C(=O)Nc3cc4cc(-c5cnn(C)c5)ccc4cn3)ccn2)CC1
- pIC50 (second compound 0.0316 µM): 5.07
- pIC50 (second compound 0.1 µM): 5.06
- pIC50 (second compound 0.316 µM): > 7.50
- pIC50 (second compound 1 µM): > 7.50
- pIC50 (second compound 3.16 µM): > 7.50
- pIC50 (second compound 10 µM): > 7.50
- viability, T/C [1]: 114%
- viability, T/C [2]: 111%
- viability, T/C [3]: 97.6%
- viability, T/C [4]: 84.2%
- viability, T/C (second compound 0.0316 µM, first compound 3.16 µM): 77.2%
- viability, T/C (second compound 0.0316 µM, first compound 10 µM): 44.8%
- viability, T/C [5]: 105%
- viability, T/C [6]: 100%
- viability, T/C [7]: 90.2%
- viability, T/C [8]: 82.8%
- viability, T/C (second compound 0.1 µM, first compound 3.16 µM): 68.8%
- viability, T/C (second compound 0.1 µM, first compound 10 µM): 46.8%
- viability, T/C [9]: 44.5%
- viability, T/C [10]: 44.2%
- viability, T/C [11]: 42.5%
- viability, T/C [12]: 38.4%
- viability, T/C (second compound 0.316 µM, first compound 3.16 µM): 30.9%
- viability, T/C (second compound 0.316 µM, first compound 10 µM): 28.1%
- viability, T/C [13]: 0.75%
- viability, T/C [14]: 0.85%
- viability, T/C [15]: 0.93%
- viability, T/C [16]: 1.18%
- viability, T/C (second compound 1 µM, first compound 3.16 µM): 0.5%
- viability, T/C (second compound 1 µM, first compound 10 µM): 0.59%
- viability, T/C [17]: 0.08%
- viability, T/C [18]: 0.14%
- viability, T/C [19]: 0.16%
- viability, T/C [20]: 0.13%
- viability, T/C (second compound 3.16 µM, first compound 3.16 µM): 1.1%
- viability, T/C (second compound 3.16 µM, first compound 10 µM): 0.14%
- viability, T/C [21]: 0.1%
- viability, T/C [22]: 0.13%
- viability, T/C [23]: 0.17%
- viability, T/C [24]: 0.22%
- viability, T/C (second compound 10 µM, first compound 3.16 µM): 0.22%
- viability, T/C (second compound 10 µM, first compound 10 µM): 0.2%

SMILES: CCN1CCN(Cc2ccc(Nc3ncc(F)c(-c4cc(F)c5nc(C)n(C(C)C)c5c4)n3)nc2)CC1 + CN1CCN(c2cc(C(=O)Nc3cc4cc(-c5cnn(C)c5)ccc4cn3)ccn2)CC1
- pIC50 (second compound 0.0316 µM): < 6.00
- pIC50 (second compound 0.1 µM): < 6.00
- pIC50 (second compound 0.316 µM): > 8.50
- pIC50 (second compound 1 µM): > 8.50
- pIC50 (second compound 3.16 µM): > 8.50
- pIC50 (second compound 10 µM): > 8.50
- viability, T/C [25]: 108%
- viability, T/C [26]: 101%
- viability, T/C [1]: 101%
- viability, T/C [2]: 127%
- viability, T/C [3]: 122%
- viability, T/C [4]: 123%
- viability, T/C [27]: 104%
- viability, T/C [28]: 104%
- viability, T/C [5]: 102%
- viability, T/C [6]: 101%
- viability, T/C [7]: 108%
- viability, T/C [8]: 101%
- viability, T/C [29]: 37%
- viability, T/C [30]: 48.5%
- viability, T/C [9]: 41.7%
- viability, T/C [10]: 50.6%
- viability, T/C [11]: 47.3%
- viability, T/C [12]: 40.4%
- viability, T/C [31]: 0.42%
- viability, T/C [32]: 0.24%
- viability, T/C [13]: 0.61%
- viability, T/C [14]: 0.35%
- viability, T/C [15]: 0.54%
- viability, T/C [16]: 0.32%
- viability, T/C [33]: 0.14%
- viability, T/C [34]: 0.26%
- viability, T/C [17]: 0.49%
- viability, T/C [18]: 0.15%
- viability, T/C [19]: 0.16%
- viability, T/C [20]: 0.16%
- viability, T/C [35]: 0.21%
- viability, T/C [36]: 0.21%
- viability, T/C [21]: 0.17%
- viability, T/C [22]: 0.16%
- viability, T/C [23]: 1.22%
- viability, T/C [24]: 1.51%

SMILES: COc1c(OCCCN2CCOCC2)ccc2c3n(c(=NC(=O)c4cnc(N)nc4)nc12)CCN3 + CN1CCN(c2cc(C(=O)Nc3cc4cc(-c5cnn(C)c5)ccc4cn3)ccn2)CC1
- pIC50 (second compound 0.0316 µM): 7.04
- pIC50 (second compound 0.1 µM): 7.13
- pIC50 (second compound 0.316 µM): > 8.50
- pIC50 (second compound 1 µM): > 8.50
- pIC50 (second compound 3.16 µM): > 8.50
- pIC50 (second compound 10 µM): > 8.50
- viability, T/C [25]: 114%
- viability, T/C [26]: 102%
- viability, T/C [1]: 88.8%
- viability, T/C [2]: 46.6%
- viability, T/C [3]: 18.3%
- viability, T/C [4]: 12.1%
- viability, T/C [27]: 118%
- viability, T/C [28]: 101%
- viability, T/C [5]: 72.4%
- viability, T/C [6]: 43%
- viability, T/C [7]: 18.3%
- viability, T/C [8]: 10.7%
- viability, T/C [29]: 45.6%
- viability, T/C [30]: 43.8%
- viability, T/C [9]: 37.4%
- viability, T/C [10]: 22.5%
- viability, T/C [11]: 11%
- viability, T/C [12]: 5.26%
- viability, T/C [31]: 1.95%
- viability, T/C [32]: 0.55%
- viability, T/C [13]: 0.91%
- viability, T/C [14]: 0.76%
- viability, T/C [15]: 0.14%
- viability, T/C [16]: 0.11%
- viability, T/C [33]: 0.14%
- viability, T/C [34]: 0.49%
- viability, T/C [17]: 0.15%
- viability, T/C [18]: 0.11%
- viability, T/C [19]: 0.11%
- viability, T/C [20]: 0.58%
- viability, T/C [35]: 0.07%
- viability, T/C [36]: 0.14%
- viability, T/C [21]: 0.42%
- viability, T/C [22]: 0.17%
- viability, T/C [23]: 1.19%
- viability, T/C [24]: 1.16%
